What is called MIC is the least concentration at which growth counts as inhibited.

For test [1], the system named is Candida tropicalis. Description: Antimicrobial activity against Candida tropicalis ATCC 750 assessed as reduction in microbial growth after 48 hrs by resazurin staining based liquid serial dilution assay. It is filed as functional.
In test [2] the test system is Aspergillus fumigatus. Description: Antimicrobial activity against Aspergillus fumigatus AF293 assessed as reduction in microbial growth after 48 hrs by resazurin staining based liquid serial dilution assay. Type of test: functional.
Test [3] has as its system Schizosaccharomyces pombe. Description: Antimicrobial activity against Schizosaccharomyces pombe strain SAK1 assessed as reduction in microbial growth by resazurin staining based CLSI method. Type of test: functional.
Test [4] has as its system Cryptococcus neoformans. Kind of test: Antimicrobial activity against Cryptococcus neoformans H99 harboring pde1 deletion mutant assessed as reduction in microbial growth after 72 hrs by resazurin staining based liquid serial dilution assay. Type of test: functional, organism-based. For orientation: Alamar Blue is a resazurin reagent that responds to reducing activity.

Test [5] concerns Cryptococcus neoformans. Description: Antimicrobial activity against Cryptococcus neoformans H99 harboring cac1 deletion mutant assessed as reduction in microbial growth after 72 hrs by resazurin staining based liquid serial dilution assay. Type of test: functional, organism-based.
Test [6] has as its system Aspergillus fumigatus. Description: Inhibition of hyphal extension in Aspergillus fumigatus AF293 at 10 ug/ml measured after 48 hrs by microscopic analysis. Type of test: functional, organism-based. To be noted: dose 10.0 µg/ml.
The test system of test [7] is Cryptococcus neoformans. Kind of test: Antimicrobial activity against Cryptococcus neoformans H99 harboring gpa1 deletion mutant assessed as reduction in microbial growth after 72 hrs by resazurin staining based liquid serial dilution assay. It is filed as functional, organism-based.
Test [8] deals with Candida albicans. Kind of test: Inhibition of hyphal extension in Candida albicans SC3514 at 10 ug/ml measured after 24 to 48 hrs by microscopic analysis. It is filed as functional, organism-based. To be noted: dose 10.0 µg/ml, time 24-48 hrs.
Test [9] concerns Candida albicans. Description: Antimicrobial activity against Candida albicans ATCC 10231 assessed as reduction in microbial growth after 48 hrs by resazurin staining based liquid serial dilution assay. It is filed as functional.
The test system of test [10] is Cryptococcus neoformans. Description: Effect on cAMP signaling mediated virulence associated encapsulation phenotype in Cryptococcus neoformans H99 incubated for 72 hrs by India Ink staining based analysis. It is filed as functional.
Test [11] has as its system Candida albicans. Description: Inhibition of hyphal extension in Candida albicans SC3514 at 10 ug/ml measured at >48 hrs by microscopic analysis. It is filed as functional, organism-based. The settings on record: dose 10.0 µg/ml, time hrs >48.
Test [12] relates to Schizosaccharomyces pombe. Description: Antimicrobial activity against Schizosaccharomyces pombe strain SAK1 harboring MJ-1682 efflux mutant assessed as reduction in microbial growth by resazurin staining based CLSI method. Type of test: functional.
Test [13] concerns Cryptococcus neoformans. Description: Antimicrobial activity against Cryptococcus neoformans H99 harboring pka1 deletion mutant assessed as reduction in microbial growth after 72 hrs by resazurin staining based liquid serial dilution assay. Type of test: functional, organism-based.
Test [14] deals with Nakaseomyces glabratus. Kind of test: Antimicrobial activity against Candida glabrata ATCC 2001 assessed as reduction in microbial growth after 48 hrs by resazurin staining based liquid serial dilution assay. It is filed as functional.
Test [15] has as its system Cryptococcus neoformans. Kind of test: Antimicrobial activity against Cryptococcus neoformans H99 harboring pkr1 deletion mutant assessed as reduction in microbial growth after 72 hrs by resazurin staining based liquid serial dilution assay. Type of test: functional, organism-based.
For test [16], the system named is Cryptococcus neoformans. Kind of test: Effect on cAMP signaling mediated virulence associated melanin production phenotype in Cryptococcus neoformans H99 incubated for 72 hrs in presence of L-DOPA. Type of test: functional.
For test [17], the system named is Aspergillus fumigatus. Kind of test: Antimicrobial activity against Aspergillus fumigatus FSGC A1240 assessed as reduction in microbial growth after 48 hrs by resazurin staining based liquid serial dilution assay. Type of test: functional.
In test [18] the test system is Cryptococcus neoformans. Description: Antimicrobial activity against Cryptococcus neoformans H99 assessed as reduction in microbial growth after 72 hrs by resazurin staining based liquid serial dilution assay. It is filed as functional.
For test [19], the system named is Staphylococcus aureus. Kind of test: Antimicrobial activity against Staphylococcus aureus ATCC 43300 assessed as reduction in microbial growth after 24 hrs by resazurin staining based liquid serial dilution assay. It is filed as functional.

Molecules are shown by their SMILES. Calls of active or inactive are those of the source. No cut-off for these calls is given here. Where only a bound is given, the exact number is not on record here.

As for `C\C=C(/C=C/C=C/C=C/C=C/C(=O)O)[C@]1(O)[C@H]2CC=C(C)C[C@@H]2C=C[C@@]1(C)O`, the minimum inhibitory concentration (MIC) is 64 µg/mL in test [1]; 38 µg/mL in test [2]; 10 µg/mL in test [3]; 128 µg/mL in [9]; 2 µg/mL in test [12]; over 128 µg/mL in [14]. Further, the minimum inhibitory concentration (MIC) was 64 µg/mL in [17], 8 µg/mL in [18] and 64 µg/mL in test [19]. The outcome in test [4], in [5], in [7], in test [13] and in [15] was Active. Also, the inhibition result in test [6] and in [8] was “Active” in each case. In addition, the outcome in test [10] and in test [16] was inactive. Further, the inhibition result in [11] is “inactive”.

For `C/C=C(\C)[C@]1(O)C=C[C@@H]2CC(C)=CC[C@H]2[C@]1(O)/C=C/C=C/C=C\C=C\C(=O)O`, the minimum inhibitory concentration (MIC) is 64 µg/mL in test [1]; 128 µg/mL in [9]; over 128 µg/mL in [14]; 64 µg/mL in test [17]; 4 µg/mL in [18]; 32 µg/mL in [19].

Take `C/C=C(\C)[C@@]1(O)[C@@H](/C=C/C=C/C=C/C=C/C(=O)O)[C@@H]2CC=C(C)C[C@H]2[C@@H]2O[C@@H]21`: the minimal inhibitory concentration (MIC) is 64 µg/mL in test [1]; 128 µg/mL in [9]; over 128 µg/mL in test [14]; 64 µg/mL in test [17]; 4 µg/mL in test [18]; 32 µg/mL in [19].

Consider `C[C@@H]1[C@H](O)[C@@H](C)/C=C/C=C/C=C/C=C/C=C/C=C/C=C/[C@H](O[C@@H]2O[C@H](C)[C@@H](O)[C@H](N)[C@@H]2O)C[C@@H]2O[C@](O)(C[C@@H](O)C[C@@H](O)[C@H](O)CC[C@@H](O)C[C@@H](O)CC(=O)O[C@H]1C)C[C@H](O)[C@H]2C(=O)O` [AMPHOTERICIN B], for which the MIC in test [1] was determined as 0.36 µg/mL; in test [9], 0.36 µg/mL; in [14] it was 0.18 µg/mL; in [17], 0.74 µg/mL; in test [18] it was 0.36 µg/mL.

Take `C/C=C(\C)[C@]1(O)C=C[C@@H]2CC(C)=CC[C@H]2[C@]1(O)/C=C/C=C/C=C\C=C\C=C\C(=O)O`: the MIC in test [1] was 64 µg/mL; in test [9], over 128 µg/mL; in test [14] it was over 128 µg/mL; in [17] it was 64 µg/mL; in test [18], 8 µg/mL; in test [19], 32 µg/mL.

The record behind these values is ChEMBL document CHEMBL4699475, “Campafungins: Inhibitors of Candida albicans and Cryptococcus neoformans Hyphal Growth” (2020).
